Measured values as given in patent publication US20020143012A1, “Phenoxazine analogs useful as amyloid aggregation inhibitors and treatment of alzheimer's disease and disorders related to amyloidosis” (priority 2000, published 2002).
Values joined by “and” are separate entries in the source; they are usually repeats but may differ in a detail not shown here. Identical values can stand only once. Like-named read-outs stand apart in the source and are kept apart here.

Columns and labels:
[1] = target: T1, Aβ(1-40) (Homo sapiens, UniProt P05067); test: BASSR (Beta-Amyloid Self-Seeding Radioassay), inhibitors of self-seeded amyloid fibril growth; type: biochemical; conditions: 30 μM soluble Aβ(1-40), 125I-labeled Aβ(1-40), 37° C. 3 to 5 hours; replicate values; ppt = precipitate formed at the indicated concentration
T1 construct: Soluble Aβ(1-40) peptide (Bachem, Torrance, Calif.); purchased Bachem, Torrance, Calif
T1 sequence (P05067 672-711): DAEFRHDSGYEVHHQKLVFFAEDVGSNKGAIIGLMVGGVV
Experimental: 1. BASSR (Beta-Amyloid Self-Seeding Radioassay)
(§1) An assay for inhibitors of self-seeded amyloid fibril growth
(§2) Assay Buffer—50 mM sodium phosphate, pH 7.5, 100 mM NaCl, 0.02% NaN3, 1 M urea (filter and store at 4° C.)
Soluble Aβ(1-40) peptide (Bachem, Torrance, Calif.)—2.2 mg/mL in […] deionized H2O (is stored in aliquots at −20° C.; is kept on ice when thawed) will self-seed after 1 week storage. Typically, the solution is stored until no lag phase is seen in the assay.
^125I-labeled Aβ(1-40)—150K to 350K cpm/μL in 100% acetonitrile−0.1% trifluoroacetic acid (TFA)—1% β-mercaptoethanol (aliquots stored at −20° C). ^125I-labeled Aβ(1-40) is made in accordance with the procedure set forth by LeVine H., III, in Neurobiol. Aging, 1995;16:755, which is hereby incorporated by reference, or this reagent may be purchased from Amersham, Arlington Heights, Ill.
Final assay conditions: 30 μM soluble Aβ(1-40) in deionized water in assay buffer+20K to 50K cpm ^125I-labeled Aβ (1-40) per assay. Compound to be tested is dissolved in dimethylsulfoxide (DMSO), typically 5 to 50 mM stock, such that the final concentration of DMSO is<1% v/v in the assay.
Assay: Reaction mixture for 50 assays (on ice) is comprised of 0.1 to 0.2 μL of ^125I-labeled A^125I-labeled Aβ(1-40)+1 μL of soluble Aβ(1-40)+13.5 μL assay buffer per assay. The following are the amounts of the components of the reaction mixture sufficient for 50 assay wells.
1) The reaction mixture of above is prepared by mixing components and storing on ice.
b 2) 14.5 μL of the reaction mixture is pipetted into each of 50 wells on a polypropylene U-bottom 96-well microtiter plate on ice (Costar 3794).
(§3) 3) 1.7 μL of diluted compound to be tested is added to each well in a column of eight, including solvent control. Serial 3-fold dilutions from 1 mM (100 μM final) in assay buffer−urea=7 dilutions+zero. Each 96-well plate can therefore accommodate 11 samples+1 Congo Red control (0.039-5 μM final in 2-fold steps).
4) The plate with aluminum film (Beckman 538619) is sealed and incubated for 10 minutes on ice.
(§4) 5) The temperature is raised to 37° C. and incubated for 3 to 5 hours (depending on the lot of the peptide).
6) The aluminum film is removed and 200 μL/well of ice cold assay buffer with urea is added. The radiolabeled fibrils are collected by vacuum filtration through 0.2 μm pore size GVWP filters in 96-well plates (Millipore MAGV N22, Bedford, Mass.). The radioactivity of the filters is determined by using standard methods well-known to those skilled in the art.

[2] = target: T1, Aβ(1-40); test: BASST (Beta-Amyloid Self-seeding, Thioflavin T), inhibitors of self-seeded amyloid fibril growth; type: biochemical; conditions: 30 μM soluble Aβ(1-40), 37° C. 3 to 5 hours, thioflavin T fluorescence; replicate values
Experimental: 2. BASST (Beta-Amyloid Self-seeding, Thioflavin T)
as §1, §2
Soluble Aβ(1-40)—2.2 mg/mL in deionized H2O (is stored in aliquots at −20° C.; is kept on ice when thawed) will self-seed after 1 week storage. Typically, the solution is stored until no lag phase is seen in the assay.
Final assay conditions: 30 μM soluble Aβ(1-40) in deionized water in assay buffer. Compound to be tested is dissolved in DMSO, typically 5 to 50 mM stock, such that the final concentration of DMSO is<1% v/v in the assay.
Assay: Reaction mixture for 50 assays (on ice) is comprised of 1 μL of soluble Aβ(1-40)+13.5 μL assay buffer per assay. The following are the amounts of the components of the reaction mixture that result in each of the 50 assay wells.
1) The reaction mix above is prepared by mixing the components and storing on ice.
2) 14.5 μL of reaction mixture is pipetted into each of 50 wells of a polystyrene U-bottom, 96-well microtiter plate (Corning 25881-96) on ice.
as §3
4) The plate with aluminum film is sealed and incubated for 10 minutes on ice.
as §4
6) The aluminum film is removed and 250 μL/well of 5 μM thioflavin T (ThT) [T-3516, Sigma-Aldrich] is added in 50 mM glycine-NaOH, pH 8.5. Fluorescence is read on a plate reader (ex=440 nm/20 nm; em=485 nm/20 nm) within 5 minutes.

[3] = target: T2, Aβ(1-40) peptide (Homo sapiens, UniProt P05067); test: BAPA (Beta-Amyloid Peptide Aggregation), pH 6.0, filtration endpoint; type: biochemical
T2 construct: 10 μL 0.5 mg/mL Aβ(1-40) peptide in 20% HFIP
T2 sequence (P05067 672-711): as above
Experimental: 3. BAPA (Beta-Amyloid Peptide Aggregation)
This assay is used to provide a measure of inhibition by a compound against the aggregation behavior of the beta amyloid peptide.
The purpose of this assay is to provide a higher volume method of assaying the amount of beta amyloid aggregation using an endpoint assay based on filtration. In this assay, hexafluoroisopropanol (HFIP) is used to break down the initial amyloid peptide to a monomer state and a concentration of 33 μM is used, a concentration which is high enough so that aggregation will occur at pH 6.0 in several hours.
β-Amyloid Peptide Aggregation, pH 6.0 (BAPA)
To a 96-well plate (Costar 3794) is added 25 μL 50 mM Phosphate Buffer (pH 6.0), 10 μL 0.5 mg/mL Aβ(1-40) peptide in 20% HFIP+0.1 μL/assay radioiodinated ^125I Aβ(1-40) [^125I Aβ(1-40)], and 1 μL of the compound to be tested, starting at […] with a concentration of DMSO<1%. The reaction is incubated for 2 to 4 hours at room temperature. The reaction is stopped with 200 μL of 50 mM phosphate buffer, pH 6.0, and filtered through a 0.2 μm 96-well filter plate (Millipore MAGU N22). The filter plate is washed with 100 μL of the same phosphate buffer. Aggregation is detected on a Microbeta counter after impregnating the filters with Meltilex (1450-441) and is corrected for background.

[4] = target: T3, Aβ(1-42) (Homo sapiens, UniProt P05067); test: BATYM assay, Aβ(1-42) aggregation by Thioflavin T fluorescence; type: biochemical; conditions: Aβ1-42 final concentration 100 μM, 37° C. 1 day, ThT fluorescence; (P)/(Q) marks undefined
T3 construct: Required Aβ(1-42) (California Peptide) is dried from its hexafluoroisopropanol (HFIP) stock solution; purchased California Peptide
T3 sequence (P05067 672-713): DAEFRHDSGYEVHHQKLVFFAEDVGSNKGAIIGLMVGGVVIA
Experimental: Required Aβ(1-42) (California Peptide) is dried from its hexafluoroisopropanol (HFIP) stock solution. The Aβ(1-42) is dissolved in DMSO and then mixed with phosphate buffered saline (PBS) (pH 7.4). The mixed Aβ(1-42) solution is filtered with a GVWP 0.22 μm syringe filter (Millipore, Bedford, Mass.). The compound to be tested in DMSO (50 times concentrate) is put into each well (0.5 μL/well) of a 96-well plate. The Aβ(1-42) solution is added into each well (25 μL/well). The plate is centrifuged at 1000 g for 5 minutes and incubated at 37° C. for 1 day (Aβ1-42; final concentration 100 μM).
After incubation Thioflavin T (ThT) (30 μM) solution in glycine-NaOH buffer (pH 8.5, 50 mM) is added into each well (250 μL/well), fluorescence is measured (ex=440/20 nm, em=485/20 nm) using a fluorescence plate reader. The inhibitory activity is calculated as the reduction of fluorescence with the following formula:
Inhibition (%)={(F(Aβ)−F(Aβ+compound)}/{F(Aβ)−F(solvent−compound)}×100.
The IC50s are calculated by a curve-fitting program using the equation given below. The data is obtained from two different experiments in triplicate.
x=concentration of tested compound (M),

[5] = 33 μM Aβ(1-40), pH 6.0, 2 to 4 hours at room temperature, (Q) mark undefined, read-out: BAPA (IC50 = μM)
[6] = marked (BAPA2), variant not described, read-out: BAPA (IC50 = μM), value marked (BAPA2)

Compound | IC50 [1] | IC50 [2] | IC50 [3, 5] | IC50 [3, 6] | IC50 [4] | melting point
3-Nitrophenoxazinecarboxylic acid [Compound 3] | 8 µM | 13 µM (2×) and 40 µM (2×) and 23 µM (2×) | 62 µM | > 100 µM |  | 
O=C(O)c1cc([N+](=O)[O-])cc2c1Nc1cc(-c3ccccc3)ccc1O2 [Compound 2, 3-nitro-8-phenylphenoxazinecarboxylic acid] | 60 µM (2×) and 70 µM | 1 µM | 5 µM |  | 4.15 µM | 
O=C(O)c1cc(OCc2ccccc2)cc2c1Nc1ccccc1O2 [Compound 4, 3-(Phenylmethoxy)phenoxazinecarboxylic acid] | 14 µM | 8.4 µM and 45 µM (2×) and 8.44 µM |  | > 50 µM |  | 
O=C(O)c1cc([N+](=O)[O-])cc2c1Nc1ccc(CCc3ccc(Cl)c(Cl)c3)cc1O2 [Compound 5, 7-[2-(3,4-dichlorophenyl)ethyl]-3-nitrophenoxazinecarboxylic acid] | 60 µM and > 100 µM | 3 µM and 1 µM | 0.9 µM |  | 7.89 µM and 3.02 µM | > 250 °C
O=C(/C=C/c1ccc2c(c1)Oc1cc([N+](=O)[O-])cc(C(=O)O)c1N2)c1ccc(Cl)c(Cl)c1 [Compound 6, 7-[3-(3,4-Dichlorophenyl)-3-oxoprop-1-enyl]-3-nitrophenoxazinecarboxylic acid] | 21 µM and 22 µM and 25 µM | 1 µM | > 100 µM |  | 4.61 µM | > 200 °C
O=C(O)c1cc([N+](=O)[O-])cc2c1Nc1ccc(CCCc3ccc(Cl)c(Cl)c3)cc1O2 [Compound 7, 7-[3-(3,4-Dichlorophenyl)propyl]-3-nitrophenoxazine carboxylic acid] | 30 µM and 20 µM and 6 µM | 0.5 µM | > 100 µM |  | 1.88 µM | 
O=C(O)c1cc([N+](=O)[O-])cc2c1Nc1ccc(CCC(O)c3ccc(Cl)c(Cl)c3)cc1O2 (stereo not shown) [Compound 8, 7-[3-(3,4-Dichlorophenyl)-3-hydroxypropyl]-3-nitrophenoxazine carboxylic acid] | > 100 µM and 100 µM (2×) | 0.6 µM | 100 µM |  | 4.18 µM | 218 to 220 °C
Nc1cc2c(c(C(=O)O)c1)Nc1ccc(CCCc3ccc(Cl)c(Cl)c3)cc1O2 [Compound 9, 3-Amino-7-[3-(3,4-dichlorophenyl)propyl]phenoxazine carboxylic acid] | 60 µM and > 100 µM | 3 µM | 86 µM |  | 8.75 µM | 213 to 216 °C
O=C(O)c1cc([N+](=O)[O-])cc2c1Nc1cc3ccccc3cc1O2 [Compound 21, 3-nitrobenzo[b]phenoxazinecarboxylic acid] | 12 µM and 11 µM and 10 µM | 1 µM | 67 µM |  | 6.7 µM | > 230 °C
